Test results from patent publication US9029414B2, “Triterpenoid compounds and methods of use thereof” (Biotechnology Research Corporation, priority 2008, dated 2015).

Tests used:
[1] = test system: MOG-induced IL-6 in primary splenocytes; test: IL-6 Quantikine ELISA in primary splenocytes of EAE mice; type: cell-based; conditions: exogenous compound 30 μM; for amount of IL-6 in response to exogenous compound: splenocytes of compound-treated EAE mice (100 mg/kg); for reduction in the amount of MOG-induced IL-6: splenocytes of vehicle-treated EAE mice, MOG 25 μg/mL, 48 hrs
Procedure: On day 21, EAE mice were sacrificed by cervical dislocation and spleens were removed aseptically. The removed spleens were then cut with sterilized scissors and strained through […] mesh (BD Bioscience) with a plunger of 5 mL syringe (BD Bioscience) in 9 mL of RPMI 1640 (Invitrogen) with 100 U/mL penicillin and 100 μg/mL streptomycin (Sigma). The cell mixture was then added to 9 mL of Lympholyte (Cedarlane Laboratories) for gradient separation of splenocytes from red bloods cells by centrifugation at 1500 g for 20 min. After the centrifugation, the lympholyte layer containing splenocytes were carefully removed and washed with 10 mL of RPMI 1640 at 800 g for 10 min for three times. The isolated splenocytes were seeded onto different plate format and cultured with RPMI 1640 medium (Invitrogen) supplement with 10% heat inactivated fetal bovine serum (Invitrogen) and 100 U/mL penicillin and 100 μg/mL streptomycin at 37° C. CO2 incubator.
Splenocytes from EAE mice were cultured at the density of 1×10^6 cells in 12-well plates (Falcon) in the absence or presence of the MOG peptide (25 μg/mL) (Hooke Laboratories), DA001 and DA021 (30 μM) with RPMI 1640 medium (Invitrogen) supplement with 10% heat inactivated fetal bovine serum (Invitrogen) and 100 U/mL penicillin and 100 μg/mL streptomycin (Sigma) for 48 h. After 48 h, the supernatants were collected by pelleting the cells at 300 g for 10 min at 4° C. 50 μL of the each sample was added to the microtiter plate provided by the manufacturer of the Quantikine ELISA assay kit (R and D systems). Additional 50 μL of assay diluents buffer was added and incubated at room temperature for 2 h. After the incubation, the supernatants were discarded and the cells were washed with wash buffer. […] Subsequently, 100 μL of stop solution was added to each well and the plate was read in 450 nm wavelength on a microplate reader (Dynex Revelation 2.2).
(§1) Cells were cultured in RPMI 1640 medium supplement with 10% heat inactivated fetal bovine serum and penicillin/streptomycin, in the absence or presence of MOG (25 μg/mL, Ex) with or without DA001 or DA021 (30 μM, Ex). […] The amount of IL-6 was calculated based on the standard curve established during the assay. […]
as §1, with “DA001” for “DA001 or DA021”
as §1, with “without” for “without DA001 or”

cortical neurons = test: Cortical neuron survival assay against kainate excitotoxicity (LDH); type: cell-based, Sprague-Dawley rats; conditions: kainate 5-500 μM 20 min; for protection from kainate-induced excitotoxicity (LDH release): 30 μM 24 hrs
Procedure: Cortical neurons were prepared from embryonic day 18 Sprague-Dawley rats. After the cortices had been removed from the brain, isolated cells were plated onto Poly d-Lysine (PDL) (P0899, Sigma)-coated 48 well plates (150687, NUNC) at a density of 2×10^5 cell per well using Neurobasal Medium (NB) (21103-049, Gibco) with B27 supplement (17504-044, Gibco), penicillin/streptomycin (15140, Gibco) and 1 mM L-glutamine (25030, Gibco). The cell culture was incubated at 37° C. in a humidified atmosphere of 5% CO2 in air. Medium was changed to growth medium (Neurobasal Medium with penicillin/streptomycin and B27 supplement) after 3 hours. Half medium was changed with growth medium every 2-3 days to maintain the cells until day 10 in vitro (DIV 10). Serial dilutions of samples were prepared in growth medium and DMSO was used as vehicle control. For pre-treating assay, half of the medium was removed from wells, and equal amount of diluted samples were replaced. Cells were then incubated for 2 hours at 37° C. in a humidified atmosphere of 5% CO2 in air. Culture was subsequently rinsed with Locke's solution (5 mM potassium chloride, 128 mM sodium chloride, 2.7 mM calcium chloride, 1 mM di-sodium hydrogen orthophosphate, 5 mM HEPES and 10 mM Glucose in Milli-Q water), then incubated with Locke's solution in the presence of glycine (10 μM) for 15 minutes before […] treatment. Kainate dissolved in Locke's plus glycine solution was then substituted and incubated for 20 minutes at 37° C. […] Afterwards, cells were incubated in growth medium for 18-24 hours and detected with Cytotoxicity Detection Kit (1644793, Roche). […]
FIG. 5 illustrates that DA001 protects neurons against differing concentrations of kainate. […] LDH release into the medium was then measured.
Cortical neurons were treated with DA021 or DA034 and subsequently subjected to varying concentrations of kainate. […] LDH release into the medium was then measured.

| Compound | amount of IL-6 in response to exogenous compound [1] | reduction in the amount of MOG-induced IL-6 [1] | cell death (LDH release) vs DMSO control (cortical neurons; 40 μM 24 hrs, at high concentrations of kainate) | protection from kainate-induced excitotoxicity (LDH release) (cortical neurons) |
| --- | --- | --- | --- | --- |
| C=C(C)[C@@H]1CC[C@]2(C(=O)O)CC[C@]3(C)C(CC[C@@H]4[C@@]5(C)CC[C@H](O[C@@H]6OC[C@H](O)[C@H](O)[C@H]6O[C@@H]6O[C@@H](C)[C@H](O)[C@@H](O)[C@H]6O)[C@@](C)(CO)[C@@H]5CC[C@]43C)[C@@H]12 (stereo partly drawn) [DA001, 3-O-[α-L-rhamnopyranosyl-(1→2)-α-L-arabinopyranosyl]-3,23-dihydroxy-20(29)-lupen-28-oic acid] | markedly decreased | 73% | significant reduction in cell death | – |
| C=C(C)[C@@H]1CC[C@]2(/C=N/O)CC[C@]3(C)C(CCC4[C@@]5(C)CCC(=O)[C@@](C)(CO)[C@@H]5CC[C@]43C)C12 (stereo partly shown) [DA021] | markedly decreased | 79% | – | protect neurons against differing concentrations of Kainate |
| CC(=O)OC[C@]12CC[C@@H](C3(C)CO3)C1C1CCC3[C@@]4(C)CC[C@H](O)[C@@](C)(CO)[C@@H]4CC[C@@]3(C)[C@]1(C)CC2 (stereo partly shown) [DA034] | – | – | – | protect neurons against differing concentrations of Kainate |
